Results taken from patent publication US7300934B2, “Benzamide nitriles” (Roche Palo Alto LLC, priority 2003, dated 2007).

melting point: 156 to 158.9 °C
Structure (SMILES): CC(C)C[C@@H](C#N)NC(=O)[C@@H]1CCCC[C@@H]1NC(=O)c1ccc(-n2cncn2)cc1 [Compound 32, N-[(1S,2R)-2-({[(1S)-1-cyano-3-methylbutyl]amino}carbonyl)cyclohexyl]-4-(1H-1,2,4-triazol-1-yl)benzamide]
